Values after ≈ are worked out from the molar mass of the structure shown. Where two headings read alike, the source gives them in different places.
Assays:
M. tuberculosis (H37Rv) = assay: microbe, parasite or virus in culture; type: cell-based, Mycobacterium tuberculosis; details: Mycobacterium tuberculosis, H37RV
[1] = type: in vitro ADME, mouse
physchem [2] = type: physicochemical
[3] = type: in vitro ADME, mouse; remark: listed apart in the source
HepG2 cells = assay: HepG2 cytotoxicity; details: Homo sapiens
Description: Assays to establish HepG2 cytotoxicity, in vitro microsomal/hepatocyte metabolic stability, aqueous kinetic solubility, and in vivo pharmacokinetic profiles were all performed as previously described.[15],[35]−[37]

physchem [4] = details: pH 7.4
[5] = read-out: Wk2_7H9/DPPC/ casitone/ Tyloxapol MIC
[6] = read-out: Wk2_ 7H9/DPPC/ cholesterol/BSA/ Tyloxapol MIC
[7] = read-out: Wk2_7H9/glucose/ BSA/Tyloxapol MIC
[8] = read-out: Wk2_7H9/glucose/ casitone/ Tyloxapol MIC
[9] = intrinsic clearance (Cli), CD1 mouse liver microsomes, Tables 1-4
[10] = pH 7.4, aqueous buffer, kinetic from dmso stock, pH7.4, read-out: Kinetic Solubility pH7.4
[11] = HepG2, read-out: HepG2 inhibitory concentration (IC50)
[12] = pH 7.4, aqueous buffer, kinetic from dmso stock

| SMILES | MIC (M. tuberculosis (H37Rv); read-out: H37Rv MIC A) | MIC (M. tuberculosis (H37Rv); read-out: H37Rv MIC B) | MIC (M. tuberculosis (H37Rv); [5]) | MIC (M. tuberculosis (H37Rv); [6]) | MIC (M. tuberculosis (H37Rv); [7]) | MIC (M. tuberculosis (H37Rv); [8]) | IC50 (HepG2 cells; [11]) | Microsomal Cli ([1]; CD1, mouse) | Mouse micro Cl ([1]; mouse, microsomes) | solubility kinetic (physchem [2]; [12]) | solubility kinetic (physchem [2]; read-out: Kin. Sol) | Hepatocyte Cli ([3]; mouse) | Mouse Heps Cl ([3]; mouse, hepatocytes) | also measured |
| --- | --- | --- | --- | --- | --- | --- | --- | --- | --- | --- | --- | --- | --- | --- |
| Fc1c(F)c(F)c(-c2nc3c(N4CCOCC4)ncnc3o2)c(F)c1F [Compound 10, Fc1c(c(c(c(c1F)F)-c1nc2c(ncnc2o1)N1CCOCC1)F)F] | 0.2 µM (≈ 0.0745 µg/mL) | 1.2 µM (≈ 0.447 µg/mL) | 0.2 µM (≈ 0.0745 µg/mL) | 1.2 µM (≈ 0.447 µg/mL) | 1.2 µM (≈ 0.447 µg/mL) | 0.15 µM (≈ 0.0558 µg/mL) | 49 µM |  |  |  |  |  |  | Mouse micro Cl [1, 9]: 44 mLmin/g; Microsomal Cli ([1]; supplement data table): 44 mL/min/g; solubility kinetic (physchem [2]; kinetic from dmso stock, kinetic solubility in water, read-out: Kin. Sol): 13.6 µM (≈ 5.06 µg/mL); solubility kinetic (physchem [2]; [10]): 14 µM (≈ 5.21 µg/mL); Mouse Heps Cl ([3]; intrinsic clearance (Cli), mouse hepatocytes, Tables 1-4): >50 mLmin/g; Hepatocyte Cli ([3]; supplement data table): >50 mL/min/g; IC50 (HepG2 cells; HepG2, read-out: Hs-HEPG IC50): 48 µM |
| Oc1ncnc2oc(-c3c(F)c(F)c(F)c(F)c3F)nc12 [Compound 15, Oc1ncnc2oc(nc12)-c1c(c(c(c(c1F)F)F)F)F] | 1.4 µM (≈ 0.424 µg/mL) | 9.4 µM (≈ 2.85 µg/mL) | 1.4 µM (≈ 0.424 µg/mL) | 9.4 µM (≈ 2.85 µg/mL) | 5.4 µM (≈ 1.64 µg/mL) | 3.9 µM (≈ 1.18 µg/mL) | 88 µM | 2.8 mL/min/g | 2.81 mLmin/g | 149 µM (≈ 45.2 µg/mL) | 149 µM (≈ 45.2 µg/mL) | >50 mL/min/g | >50 mLmin/g |  |
| COC(=O)c1cccnc1NC(=O)c1c(F)c(F)c(F)c(F)c1F [Compound 17, COC(=O)c1cccnc1NC(=O)c1c(c(c(c(c1F)F)F)F)F] | 9.4 µM (≈ 3.25 µg/mL) | > 50 µM | 9.4 µM (≈ 3.25 µg/mL) | > 50 µM | > 50 µM | 12.5 µM (≈ 4.33 µg/mL) | > 100 µM | 47 mL/min/g | 47 mLmin/g |  |  |  |  |  |
| CN(C)c1ncnc2sc(-c3ccccc3)nc12 [Compound 3, CN(C)c1ncnc2sc(nc12)-c1ccccc1] | > 50 µM | > 50 µM | > 50 µM | > 50 µM | > 50 µM | > 50 µM | > 100 µM | >50 mL/min/g | >50 mLmin/g |  |  |  |  |  |
| CNc1ncnc2oc(-c3c(F)c(F)c(F)c(F)c3F)nc12 [Compound 12, CNc1ncnc2oc(nc12)-c1c(c(c(c(c1F)F)F)F)F] | > 50 µM | > 50 µM | > 50 µM | > 50 µM | > 50 µM | > 50 µM | > 100 µM | <0.5 mL/min/g | 0.5 mLmin/g | 227 µM (≈ 71.8 µg/mL) | 228 µM (≈ 72.1 µg/mL) | 4.7 mL/min/g | 4.7 mLmin/g |  |
| CN(C)c1ncnc2oc(-c3c(F)c(F)c(F)c(F)c3F)nc12 [Compound 6, CN(C)c1ncnc2oc(nc12)-c1c(c(c(c(c1F)F)F)F)F] | 0.2 µM (≈ 0.066 µg/mL) | 1.4 µM (≈ 0.462 µg/mL) | 0.2 µM (≈ 0.066 µg/mL) | 1.4 µM (≈ 0.462 µg/mL) | 1.4 µM (≈ 0.462 µg/mL) | 0.15 µM (≈ 0.0495 µg/mL) | > 100 µM | >50 mL/min/g | >50 mLmin/g | 1 µM (≈ 0.33 µg/mL) | 1.0 µM (≈ 0.33 µg/mL) | >50 mL/min/g | >50 mLmin/g |  |
| CN(C)c1ncnc2sc(-c3ccc(F)cc3)nc12 [Compound 5, CN(C)c1ncnc2sc(nc12)-c1ccc(cc1)F] | > 50 µM | > 50 µM | > 50 µM | > 50 µM | > 50 µM | 19 µM (≈ 5.21 µg/mL) | > 100 µM | >50 mL/min/g | >50 mLmin/g |  |  |  |  |  |
| CCOC(=O)c1nc(C)oc1NC(=O)c1cc(F)c(F)c(F)c1 [Compound 26, CCOC(=O)c1nc(oc1NC(=O)c1cc(c(c(c1)F)F)F)C] | > 50 µM | > 50 µM | > 50 µM | > 50 µM | > 50 µM | > 50 µM |  |  |  |  |  |  |  | chromatographic logD (physchem [4]): 2.3; Mouse micro Cl [1, 9]: 7.1 mLmin/g; Microsomal Cli ([1]; supplement data table): 7.1 mL/min/g; solubility kinetic (physchem [2]; kinetic solubility in water, read-out: Kin. Sol): 241 µM (≈ 79.1 µg/mL); solubility kinetic (physchem [2]; [10]): 241 µM (≈ 79.1 µg/mL) |
| COC(=O)c1ccncc1NC(=O)c1c(F)c(F)c(F)c(F)c1F [Compound 18, COC(=O)c1ccncc1NC(=O)c1c(c(c(c(c1F)F)F)F)F] | 4.7 µM (≈ 1.63 µg/mL) | 12.5 µM (≈ 4.33 µg/mL) | 4.7 µM (≈ 1.63 µg/mL) | 12.5 µM (≈ 4.33 µg/mL) | 12.5 µM (≈ 4.33 µg/mL) | 4.7 µM (≈ 1.63 µg/mL) | > 100 µM | 27 mL/min/g | 27 mLmin/g | 109 µM (≈ 37.7 µg/mL) | 109 µM (≈ 37.7 µg/mL) |  |  | chromatographic logD (physchem [4]): 2.8 |
| CN(C)c1ncnc2sc(-c3c(F)c(F)cc(F)c3F)nc12 [Compound 2, CN(C)c1ncnc2sc(nc12)-c1c(c(cc(c1F)F)F)F] | > 50 µM | > 50 µM | > 50 µM | > 50 µM | > 50 µM | 4.7 µM (≈ 1.54 µg/mL) | > 100 µM | >50 mL/min/g | >50 mLmin/g |  |  |  |  |  |
